We go through one sequence from patent US10287328B2, “Treatment of diabetes, toll-like receptor 4 modulators and methods for using the same” (KeMyth Biotech Co., Ltd., priority 2016, dated 2019).

The nature of data set [1]: Blood glucose level in HFD-induced, STZ-injected type 2 diabetic rats. The format is in vivo, Sprague-Dawley rats. Conditions: STZ-injected HFD-fed rats, 2 mg/kg/3 days i.p. for 30 days, compared to STZ+vehicle. The method, then:
The Sprague-Dawley rats were allocated to two dietary regimens by feeding either normal or HFD ad libitum, for the initial period of 2 weeks. After 2 weeks of dietary manipulation, the group of rats fed HFD were injected intraperitoneally (i.p.) with a low dose of STZ (35 mg/kg b.w.), while the respective control rats were given vehicle citrate buffer (pH 4.5) in a dose volume of 1 mL/kg, i.p. Seven days after STZ injection, rats were screened for blood glucose levels. Overnight fasted (10-12 hours) animals were given glucose (3 g/kg b.w.) by gastric intubation. After 2 hours of oral administration, blood samples were taken from lateral tail vein, left to coagulate and centrifuged; then serum glucose concentration was measured. Rats having serum glucose ≥200 mg/dL after 2 hours of glucose intake were considered diabetic and selected for further pharmacological studies. The rats were allowed to continue to feed on their respective diets until the end of the study (16). […]
Blood Glucose Test Strips and Blood Glucose Monitoring System were used to determine whole blood glucose levels on a drop of tail blood collected between 10 am and midday. Glucose concentration was determined colorimetrically using a glucose oxidase/peroxidase reagent kit. Samples were incubated with 100 μl of assay reagent at 37° C. for 30 min and measured at 540 nm. […]

The nature of data set [2]: Blood glucose level in C57BL/KsJ-db/db diabetic mice. Conditions: 2 mg/kg/3 days i.p. for 30 days, compared with control group, after week 2. The format is in vivo. The method, then:
Male C57BL/KsJ-db/db mice (diabetic deficiency knockout mice) at 5 weeks of age (23 g) were fed a pelletized commercial chow diet for acclimation from the arrival for 2 weeks. […]. They were given free access to food and distilled water, and the food consumption and body weight gain were measured daily and weekly, respectively. […]; and (2) group 2 served as diabetic mice administered C70PLY4 (2 mg/kg/3 days) in aqueous suspension i.p. for 30 days (C70PLY4). […] The blood was centrifuged at 1000 g for 15 min at 4° C., and plasma and erythrocyte were separated. The livers and adipose tissues were removed, washed, weighted, and frozen at −70° C. until analyzed.
Blood Glucose Test Strips and Blood Glucose Monitoring System were used to determine whole blood glucose levels on a drop of tail blood collected between 10 am and midday. Glucose concentration was determined colorimetrically using a glucose oxidase/peroxidase reagent kit. Samples were incubated with 100 μl of assay reagent at 37° C. for 30 min and measured at 540 nm. Values were expressed in mg/dL.

Data set [3] deals with ERK1/2 and NFκB-p65 subunit phosphorylation. Briefly: Western blot of LPS-induced ERK1/2 and NFκB-p65 phosphorylation in HUVECs. It counts as cell-based, human. Particulars: LPS 1 μg/mL plus C70PLY4 100, 300 and 500 nM, 24 h. The method, then:
Cells were kept as the control, treated with LPS (1 μg/mL), or co-treated with LPS (1 μg/mL) and C70PLY4 (100, 300, and 500 nM) for 24 h and the phosphorylation of ERK1/2 and NFκB-p65 subunit were determined by Western blot. Cells were collected by scraping and lysed with RIPA buffer containing 1% NP-40, 0.5% sodium deoxycholate, 0.1% SDS, and a protease inhibitor mixture (PMSF, aprotinin, and sodium orthovanadate). The total cell lysate (50 μg of protein) was separated by SDS-polyacrylamide gel electrophoresis (PAGE) (10% running, 4% stacking) and transferred onto a polyvinylidene fluoride membrane (Immobilon P, 0.45-μm pore size). The membrane was then incubated with the designated antibodies. Immunodetection was performed by using the Western-Light chemiluminescent detection system (Applied Biosystems, Foster City, Calif.).
The present study determined if C70PLY4 inhibits LPS-induced signaling, including protein ERK1/2 and NFκB-p65 subunit, in the human umbilical vein endothelial cells (HUVECs) by using western blot assay (FIG. 14, panel A). The cells were kept as control, treated with LPS (1 μg/mL) only for 24 h, or co-treated with LPS (1 μg/mL) and C70PLY4 (100, 300, and 500 nM) for 24 h and the protein phosphorylation of ERK1/2 and NFκB-p65 subunit were examined.
Background: A western blot detects proteins with antibodies after separation by electrophoresis.

The test system of data set [4] is HUVECs. The format is cell-based, human. The method, then: Cell viability was detected by a methanethiosulfonate (MTS) assay. In brief, 2×10^4 HUVECs were seeded to a 48-well plates in 100 μl endothelial cell medium (ECM, ScienCell Research Laboratory, Cat. 1001, USA) per well and incubated for 24 hrs. The media was removed and the cells were then incubated with media having 2% fetal bovine serum (FBS), in the absence or presence of various peptides, such as PLY, PLY123, PLY4, C70PLY4 or N35PLY4, at a concentration of 1, 10 or 100 nM. After incubation for 18 hours, the media was removed and 20 μl MTS reagents (20%) were added to each well in the final volume of 100 μl and placed in incubator for 1 hours. The optical density was measured at 490 nm using a plate reader.

In data set [5] the test system is HUVECs. Description: Cell apoptosis, TUNEL assay in HUVECs. The format is cell-based, human. Particulars: compared to control cells. The method, then: Cell apoptosis was detected by using commercial terminal deoxynucleotidyl transferase-dUTP nick end labeling (TUNEL) and caspase-3 activity kits, i.e., Apo-BrdU in Situ DNA Fragmentation Assay Kit (BioVision) and NucView™ 488 Caspase-3 Enzyme Substrate (Biotium). In brief, after incubation with M199 media in the presence or absence of […] various PLY peptides, at 37° C., 5% CO2 for 1 hour, HUVECs were washed with PBS and fixed with fixation buffer on ice for 20 min. Cells were then soaked in 70% alcohol for 1 hr. After 2 times of wash by washing buffer, cells were incubated in DNA labeling solution for 60 min at 37° C. Cells were then treated with rinse buffer and incubated with antibody buffer for 30 min at room temperature. The cell nuclei were stained with propidium iodide for 30 min. Samples were observed by fluorescent microscopeand photographed charge-coupled device (CCD) camera.

The test system of data set [6] is HUVEC. Particulars: treated for 1, 4 and 7 hours (FIG. 16).

Turning to “QDLTAHFTTSIPLKGNVRNLSVKIRECTGLAWEWWRTVYEKTDLPLVRKRTISIWGTTLYPQVEDKVEND [C70PLY4]”, the blood glucose levels entry in data set [1] was “decreased blood glucose”. For the same sequence, the blood glucose level result in data set [2] is given as “significantly decreases”. In addition, in data set [3], the “LPS-induced ERK1/2 phosphorylation” value is reported as “significantly inhibited” and the “LPS-induced NFκB-p65 subunit phosphorylation” value is given as “significantly inhibited”. For the same sequence, the “toxicity to HUVECs (FIG. 15)” value in data set [4] (MTS assay, 1, 10 or 100 nM, statement for high concentration (100 nM)) is reported as “no toxic effects”. For the same sequence, the “toxic effects to HUVECs at 100 nM or below” value in data set [4] (MTS assays, 100 nM or below, data not shown) is recorded as “no toxic effects”. The “apoptotic potential, TUNEL assay” value in data set [5] is recorded as “no apoptotic potential”. The “cell morphology of HUVEC” value in data set [6] is “did not affect the cell morphology”.
